Laboratory results from article PMC4387594, “Pentacycloundecane lactam vs lactone norstatine type protease HIV inhibitors: binding energy calculations and DFT study” (Journal of Biomedical Science, 2015).
Like-named read-outs stand apart in the source and are kept apart here. Peptide text beside a SMILES is read from it. * marks the point of attachment. X2 = O=C1OC2(C(=O)*)C3C4CC5C6C4C2C6C1(O)C53; X1 = O=C1NC2(N*)C3C4CC5C6C4C2C6C1(O)C53

Experiments:
[1] = 1H NMR, ref [19],[20], cited from earlier work
Description: It is therefore most likely that the lactam form is the active form in aqueous solution (also used for the IC50 experiments). The conformation for the amide side chain with the lowest energy was determined. In both cases this conformation involved intramolecular hydrogen bonding (O5 ...

[2] = molecular target: T1, wild type C-South African (C-SA) HIV-1 protease (Human immunodeficiency virus type 1 group M subtype B, UniProt P12497, H557K/I503V/I581L/L507I/L577M/M524I/R529K/T500S); assay: in vitro HIV-1 protease inhibition (C-SA PR); assay type: biochemical, HIV-1 subtype C
T1 construct: Over-expression, extraction and purification of the C-SA protease and in vitro HIV-1 protease activity were reported in our earlier publications; made in house
Excerpt: Over-expression, extraction and purification of the C-SA protease and in vitro HIV-1 protease activity were reported in our earlier publications. Genetic diversity among HIV-1 subtypes ranges between 25 and 35% at the nucleotide level and variation within subtypes vary from 15 to 20% [48, 49].
The HIV-1 subtype C PR that predominates in South Africa (C-SA PR) is defined as the consensus subtype C PR [51]. This C-SA PR contains eight polymorphic sites (T12S, I15V, L19I, M36I, R41K, H69K, L89M, and I93L) in relation to the wild-type subtype B HIV-1 PR [52].
The procedures followed were the same as reported before ^12,13.

Structure (SMILES)	IC50 [2]	further results
CC(=O)NC12NC(=O)C3(O)C4C5CC(C6C5C3C61)C42 (racemic) [PCU-lactam]	–	tautomer preference ([1]; (CD3)2SO): major tautomer
CC(=O)NC12N=C(O)C3(O)C4C5CC(C6C5C3C61)C42 (racemic) [PCU-lactim]	–	tautomer preference ([1]; dioxane): dominant
COC(=O)N[C@H](C(=O)N[C@@H](Cc1ccccc1)[C@@H](O)CN(Cc1ccc(-c2ccccn2)cc1)NC(=O)[C@@H](NC(=O)OC)C(C)(C)C)C(C)(C)C [Atazanavir, reference compound]	4 ± 0.71 nM	–
CC[C@H](C)[C@H](NC(=O)[C@@H](N)CO)C(=O)N[C@@H](C)C(=O)N[C@@H](CCC(=O)O)C(=O)NC12NC(=O)C3(O)C4C5CC(C6C5C3C61)C42 (some centres unmarked) [PCU-lactam-NH-EAIS] (H-SIAE-X1)	~78 nM	–
CC[C@H](C)[C@H](NC(=O)[C@H](C)NC(=O)C12OC(=O)C3(O)C4C5CC(C6C5C3C61)C42)C(=O)N[C@@H](CO)C(N)=O (some centres unmarked) [PCU-lactone-CO-AIS]	830 nM	–
CC[C@H](C)[C@H](NC(=O)[C@H](C)NC(=O)[C@H](CCC(=O)O)NC(=O)C12OC(=O)C3(O)C4C5CC(C6C5C3C61)C42)C(=O)N[C@@H](CO)C(N)=O (some centres unmarked) [PCU-lactone-CO-EAIS] (X2-EAIS-NH2)	850 ± 180 nM	IC50 relative to the corresponding cage lactam peptide ([2]; C-SA HIV-1 protease): eleven times weaker
CC[C@H](C)[C@H](NC(=O)[C@H](C)NC(=O)[C@H](CCC(=O)O)NC(=O)C12OC(=O)C3(O)C4C5CC(C6C5C3C61)C42)C(N)=O (some centres unmarked) [PCU-lactone-CO-EAI]	2600 nM	–
